Reference: PubChem BioAssay AID330 (DTP/NCI, 2004)
“And” between values parts separate entries of the source, which are not always exact repeats. Identical values can stand only once. Toxic doses and inconclusive results are not listed. Rule for the calls: active = survival T/C of 150% or more; inactive = T/C below 125% in these data.

Test system: P388 leukemia ip, CD2F1 mice, survival T/C
Assay: NCI In Vivo Anticancer Drug Screen. Data for tumor model P388 Leukemia (intraperitoneal) in CD2F1 (CDF1) mice
Details: endpoint: median survival time, higher = longer survival
Outline: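 Mice carrying the transplanted tumor received test compound or vehicle. Survival was recorded in each group, and the value is the treated-group measurement divided by that of the vehicle-treated control group.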

[1] = dose: 25.0 mg/kg/injection, schedule: Q01DX009 (ip), vehicle: Klucel (hydroxypropylcellulose) (HPC)
[2] = dose: 50.0 mg/kg/injection, schedule: Q01DX009 (ip), vehicle: Klucel (hydroxypropylcellulose) (HPC)
[3] = dose: 100.0 mg/kg/injection, schedule: Q01DX009 (ip), vehicle: Klucel (hydroxypropylcellulose) (HPC)
[4] = dose: 100.0 mg/kg/injection, schedule: Q01DX009 (ip), vehicle: saline with Tween-80
[5] = dose: 200.0 mg/kg/injection, schedule: Q01DX009 (ip), vehicle: Klucel (hydroxypropylcellulose) (HPC)
[6] = dose: 200.0 mg/kg/injection, schedule: Q01DX009 (ip), vehicle: saline with Tween-80
[7] = dose: 400.0 mg/kg/injection, schedule: Q01DX009 (ip), vehicle: saline with Tween-80
[8] = dose: 400.0 mg/kg/injection, schedule: Q01DX009 (ip), vehicle: Klucel (hydroxypropylcellulose) (HPC)
[9] = dose: 50.0 mg/kg/injection, schedule: Q01DX009 (ip), vehicle: saline with Tween-80
[10] = dose: 50.0 mg/kg/injection, schedule: Q01DX009 (ip), vehicle: saline
[11] = dose: 100.0 mg/kg/injection, schedule: Q04DX003 (ip), vehicle: saline
[12] = dose: 200.0 mg/kg/injection, schedule: Q04DX003 (ip), vehicle: saline
[13] = dose: 400.0 mg/kg/injection, schedule: Q04DX003 (ip), vehicle: saline
[14] = dose: 60.0 mg/kg/injection, schedule: Q01DX005 (ip), vehicle: saline with Tween-80
[15] = dose: 120.0 mg/kg/injection, schedule: Q01DX005 (ip), vehicle: saline with Tween-80
[16] = dose: 100.0 mg/kg/injection, schedule: Q01DX009 (ip), vehicle: suspension in saline
[17] = dose: 200.0 mg/kg/injection, schedule: Q01DX009 (ip), vehicle: suspension in saline
[18] = dose: 100.0 mg/kg/injection, schedule: Q01DX001 (ip), vehicle: Klucel (hydroxypropylcellulose) (HPC)
[19] = dose: 200.0 mg/kg/injection, schedule: Q01DX001 (ip), vehicle: Klucel (hydroxypropylcellulose) (HPC)
[20] = dose: 400.0 mg/kg/injection, schedule: Q01DX001 (ip), vehicle: Klucel (hydroxypropylcellulose) (HPC)

Measured: T/C

O=C(Nc1nccs1)Nc1ccccc1C(F)(F)F
inactive: [1] 115 % of control | [2] 108 % of control | [3] 106 % of control | [4] 92 % of control | [5] 111 % of control | [6] 90 % of control | [7] 88 % of control

CC1(C)CC(O)(C(Cl)c2ccccc2)C(=O)c2ccccc21 (stereo not given)
inactive: [1] 96 % of control | [2] 93 % of control | [3] 93 % of control | [5] 94 % of control | [8] 86 % of control

C=CC[n+]1ccc(/C=N\NC(N)=S)c2ccccc21
inactive: [9] 116 % of control | [4] 110 % of control

CN(C)c1nc(=O)c(-c2ccccc2)c(-c2ccccc2)o1
inactive: dose: 100.0 mg/kg/injection, schedule: Q04DX002 (ip), vehicle: Klucel (hydroxypropylcellulose) (HPC) 103 % of control | dose: 200.0 mg/kg/injection, schedule: Q04DX002 (ip), vehicle: Klucel (hydroxypropylcellulose) (HPC) 106 % of control | dose: 400.0 mg/kg/injection, schedule: Q04DX002 (ip), vehicle: Klucel (hydroxypropylcellulose) (HPC) 103 % of control

CC(C)[N+](C)(C)CC(O)COc1ccccc1-c1ccccc1 (stereo not given)
inactive: dose: 12.5 mg/kg/injection, schedule: Q01DX009 (ip), vehicle: saline 100 % of control | dose: 25.0 mg/kg/injection, schedule: Q01DX009 (ip), vehicle: saline 98 % of control | [10] 93 % of control and 97 % of control

CCOC(=O)c1ccccc1OP(=O)(N(C)C)N(C)C
inactive: [9] 99 % of control and 100 % of control and 108 % of control | [4] 99 % of control and 109 % of control and 97 % of control | [6] 99 % of control and 103 % of control and 109 % of control

CCCSc1nc2ccc(N=Cc3ccccc3O)cc2s1
inactive: [2] 97 % of control | [3] 90 % of control | [5] 90 % of control

COc1ccc(C2c3cc4c(cc3OC(C)(O)C2C)OCO4)c(OC)c1 (stereo not given)
inactive: dose: 60.0 mg/kg/injection, schedule: Q01DX005 (ip), vehicle: Klucel (hydroxypropylcellulose) (HPC) 98 % of control | dose: 120.0 mg/kg/injection, schedule: Q01DX005 (ip), vehicle: Klucel (hydroxypropylcellulose) (HPC) 97 % of control | dose: 240.0 mg/kg/injection, schedule: Q01DX005 (ip), vehicle: Klucel (hydroxypropylcellulose) (HPC) 100 % of control

COc1ccc(NCS(=O)(=O)O)cc1
inactive: [11] 100 % of control | [12] 108 % of control | [13] 104 % of control

COc1cc(-c2ccc(NC(=O)Nc3nccs3)c(OC)c2)ccc1NC(=O)Nc1nccs1
inactive: [9] 95 % of control | [4] 98 % of control | [6] 96 % of control

COc1ccc(OC)c(NCCCN2C(=O)c3ccccc3C2=O)c1
inactive: [14] 90 % of control | [15] 86 % of control

CC1=C(O)C(=O)[C@@H]2O[C@@H]2C1=O
inactive: dose: 1.5 mg/kg/injection, schedule: Q01DX007 (ip), vehicle: saline 111 % of control | dose: 3.0 mg/kg/injection, schedule: Q01DX007 (ip), vehicle: saline 122 % of control | dose: 6.0 mg/kg/injection, schedule: Q01DX007 (ip), vehicle: saline 122 % of control

O=C1NC2(CCCC2)C(=O)N1CCCN(CCCl)CCCl
active: dose: 1.5 mg/kg/injection, schedule: Q01DX005 (ip), vehicle: saline 173 % of control | dose: 3.0 mg/kg/injection, schedule: Q01DX005 (ip), vehicle: saline 176 % of control and 185 % of control | dose: 6.0 mg/kg/injection, schedule: Q01DX005 (ip), vehicle: saline 179 % of control and 204 % of control | dose: 12.0 mg/kg/injection, schedule: Q01DX005 (ip), vehicle: saline 203 % of control and 288 % of control

N#CC(C#N)=C1CCNc2ccccc21
inactive: [4] 95 % of control | [6] 95 % of control | [7] 95 % of control

O=[N+]([O-])C(CO)C(CO)[N+](=O)[O-] (stereo not given)
inactive: [3] 110 % of control | [16] 103 % of control | [5] 108 % of control | [17] 100 % of control | [8] 111 % of control | dose: 400.0 mg/kg/injection, schedule: Q01DX009 (ip), vehicle: suspension in saline 109 % of control

Cc1cc(N2C(=O)CSC2=S)ccc1Cl
inactive: dose: 50.0 mg/kg/injection, schedule: Q01DX009 (ip), vehicle: suspension in saline 105 % of control | [16] 99 % of control | [17] 106 % of control

CCN1c2ccccc2S(=O)(=O)n2c(COc3ccccc3)nnc21
inactive: dose: 25.0 mg/kg/injection, schedule: Q01DX001 (ip), vehicle: saline with Tween-80 95 % of control | dose: 50.0 mg/kg/injection, schedule: Q01DX001 (ip), vehicle: saline with Tween-80 95 % of control | dose: 100.0 mg/kg/injection, schedule: Q01DX001 (ip), vehicle: saline with Tween-80 87 % of control

Nc1c[n+]([O-])ccn1
inactive: [11] 101 % of control | [12] 98 % of control | [13] 93 % of control

CCCn1c(Cl)c(C=O)c2ccccc21
inactive: [18] 104 % of control | [19] 98 % of control | [20] 97 % of control

COc1ccc(C2c3cc4c(cc3OC3(O)CCCC(=O)C23)OCO4)cc1 (stereo not given)
inactive: [14] 100 % of control | [15] 100 % of control | dose: 240.0 mg/kg/injection, schedule: Q01DX005 (ip), vehicle: saline with Tween-80 93 % of control

CCOC1(OCC)C(=O)N(c2ccc(Cl)c(Cl)c2)C(=O)N1c1ccc(Cl)c(Cl)c1
inactive: [11] 95 % of control | [12] 92 % of control | [13] 89 % of control

CC(=O)CSc1ncnc2nc[nH]c12
inactive: dose: 100.0 mg/kg/injection, schedule: Q04DX003 (ip), vehicle: saline with Tween-80 100 % of control | dose: 200.0 mg/kg/injection, schedule: Q04DX003 (ip), vehicle: saline with Tween-80 113 % of control | dose: 400.0 mg/kg/injection, schedule: Q04DX003 (ip), vehicle: saline with Tween-80 109 % of control

C/C=C1/CN2CCC34c5ccccc5N5C(=O)C(C6CC78c9ccccc9N9C(=O)C=CC(C%10CC7N6C/C%10=C/C)C98)=CC(C1CC23)C54 (stereo not given)
inactive: dose: 10.0 mg/kg/injection, schedule: Q01DX009 (ip), vehicle: saline with Tween-80 99 % of control | dose: 20.0 mg/kg/injection, schedule: Q01DX009 (ip), vehicle: saline with Tween-80 104 % of control | dose: 40.0 mg/kg/injection, schedule: Q01DX009 (ip), vehicle: saline with Tween-80 104 % of control | dose: 80.0 mg/kg/injection, schedule: Q01DX009 (ip), vehicle: saline with Tween-80 88 % of control

COc1cc(C(=O)n2ncc(C(C)=O)c2C)cc(OC)c1OC
inactive: [9] 103 % of control | [4] 106 % of control | [6] 116 % of control

CC1(C)C2=CCC[C@H]2[C@H]2[C@@H](OC(=O)/C=C/c3ccccc3)CC[C@H]21
inactive: [18] 100 % of control | [19] 103 % of control | [20] 103 % of control

CC1C(C#N)C(=O)NC(=O)C1C#N (stereo not given)
inactive: [10] 99 % of control | dose: 100.0 mg/kg/injection, schedule: Q01DX009 (ip), vehicle: saline 100 % of control | dose: 200.0 mg/kg/injection, schedule: Q01DX009 (ip), vehicle: saline 100 % of control

CCNCCNc1ccc(NCCNCC)c2c1C(=O)c1ccccc1C2=O
active: dose: 4.0 mg/kg/injection, schedule: Q01DX009 (ip), vehicle: acid diluted with saline 157 % of control | dose: 8.0 mg/kg/injection, schedule: Q01DX009 (ip), vehicle: acid diluted with saline 174 % of control | dose: 12.5 mg/kg/injection, schedule: Q01DX009 (ip), vehicle: other 168 % of control | dose: 16.0 mg/kg/injection, schedule: Q01DX009 (ip), vehicle: acid diluted with saline 166 % of control

CCOc1cc(/C=N\Nc2nncn2N)c(C)cc1N(CCCl)CCCl
inactive: dose: 50.0 mg/kg/injection, schedule: Q04DX003 (ip), vehicle: saline sonified 116 % of control

CC1=C(C#N)C2(N)OC1(C)C1C(=O)C=CC(=O)C12 (stereo not given)
inactive: dose: 50.0 mg/kg/injection, schedule: Q01DX005 (ip), vehicle: saline with Tween-80 110 % of control | dose: 100.0 mg/kg/injection, schedule: Q01DX005 (ip), vehicle: saline with Tween-80 107 % of control | dose: 200.0 mg/kg/injection, schedule: Q01DX005 (ip), vehicle: saline with Tween-80 108 % of control
